Bridge positions count the residues as written; N and C are the ends. Square brackets hold non-standard residues; d marks the D form. Peptide text beside a SMILES is read from it. Hyp = O=C(O)[C@@H]1C[C@@H](O)CN1
Assays:
hAM1 receptor = hAM1 receptor (Homo sapiens, UniProt O60895+Q16602); test: cAMP assay for in vitro receptor activation, hAM1-R; assay type: cell-based; settings: cAMP assay, hAM1 receptor; read-out: hAM1R EC50
Procedure, shortened: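 Monoclonal stable hAM1-overexpressing cells, thawed from frozen stock; 8000 cells/well in DPBS + 0.05% casein + 0.5 mM IBMX; read-out cAMP.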

[1] = Physical stability of peptide analogues (Thioflavin T fibrillation); assay type: physicochemical; settings: maximum ThT signal normalized between hAMY maximum and buffer background; 40° C., shaking, four days; pH 7 per table title
Procedure, shortened: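 Maximum ThT emission at 480 nm, after LOESS smoothing, is given as percent of the span from buffer background to hAMY. Conditions: 50 mM buffer at pH 4 or 7, 4 μM dye, 40 °C, repeated shaking, readings every 10 min for four days.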

hAMY3 receptor = target: T1, hAMY3 receptor (Homo sapiens, UniProt O60896+P30988); test: cAMP assay for in vitro receptor activation, hAMY3-R; assay type: cell-based; settings: cAMP assay, hAMY3 receptor; read-out: hAMY3R EC50
T1 sequence (P30988 25-474): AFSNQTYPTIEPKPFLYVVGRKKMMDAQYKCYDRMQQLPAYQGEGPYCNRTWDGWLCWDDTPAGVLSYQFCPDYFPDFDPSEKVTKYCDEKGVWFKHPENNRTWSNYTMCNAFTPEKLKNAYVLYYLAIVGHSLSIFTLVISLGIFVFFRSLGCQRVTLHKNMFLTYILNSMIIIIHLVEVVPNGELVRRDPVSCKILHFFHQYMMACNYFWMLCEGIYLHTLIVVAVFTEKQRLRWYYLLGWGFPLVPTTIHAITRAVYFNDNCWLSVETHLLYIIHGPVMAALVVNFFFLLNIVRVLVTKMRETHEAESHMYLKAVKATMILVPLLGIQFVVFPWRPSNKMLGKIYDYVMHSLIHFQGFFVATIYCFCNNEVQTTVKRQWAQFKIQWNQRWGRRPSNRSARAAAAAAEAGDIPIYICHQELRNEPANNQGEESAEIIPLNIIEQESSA
T1 sequence (O60896 24-148 partner): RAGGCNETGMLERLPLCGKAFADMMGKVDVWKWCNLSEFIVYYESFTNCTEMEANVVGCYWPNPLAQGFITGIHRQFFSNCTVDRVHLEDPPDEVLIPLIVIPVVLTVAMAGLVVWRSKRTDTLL
Procedure, shortened: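 Graded compound concentrations were applied for 30 min at room temperature to stably hAMY3-expressing cells in DPBS, 0.05% casein, 0.5 mM IBMX; cAMP detected by TR-FRET.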

Sequence of hAM1 receptor (Q16602 23-461): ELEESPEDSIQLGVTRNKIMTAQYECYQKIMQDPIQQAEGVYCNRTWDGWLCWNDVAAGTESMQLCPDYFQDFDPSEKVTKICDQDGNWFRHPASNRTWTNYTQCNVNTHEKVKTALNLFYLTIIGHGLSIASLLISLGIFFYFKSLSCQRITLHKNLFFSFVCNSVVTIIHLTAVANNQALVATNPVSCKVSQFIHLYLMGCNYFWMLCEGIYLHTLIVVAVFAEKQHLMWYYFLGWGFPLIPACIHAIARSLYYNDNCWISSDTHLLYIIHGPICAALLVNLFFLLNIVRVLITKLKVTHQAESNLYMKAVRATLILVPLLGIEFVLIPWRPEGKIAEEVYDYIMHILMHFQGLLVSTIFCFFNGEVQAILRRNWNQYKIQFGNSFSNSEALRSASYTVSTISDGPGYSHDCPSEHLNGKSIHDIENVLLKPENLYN
Sequence of hAM1 receptor (O60895 43-175 partner): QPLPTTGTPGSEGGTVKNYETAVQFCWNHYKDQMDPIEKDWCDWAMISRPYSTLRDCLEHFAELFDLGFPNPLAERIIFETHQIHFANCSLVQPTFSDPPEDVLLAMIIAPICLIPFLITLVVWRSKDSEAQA

Structure (SMILES)	EC50 (hAM1 receptor) [µM]	Max ThT signal (%) [1] [%]	EC50 (hAMY3 receptor) [nM]
CC[C@H](C)[C@H](NC(=O)[C@H](CCC(N)=O)NC(=O)[C@H](Cc1c[nH]cn1)NC(=O)[C@H](C)NC(=O)[C@H](CC(C)C)NC(=O)[C@H](CCCNC(=N)N)NC(=O)[C@H](CCC(N)=O)NC(=O)[C@@H](NC(=O)[C@@H](NC(=O)[C@@H]1CSSC[C@H](NC(=O)[C@@H](N)CCCCN)C(=O)N[C@@H](CC(N)=O)C(=O)N[C@@H]([C@@H](C)O)C(=O)N[C@@H](C)C(=O)N[C@@H]([C@@H](C)O)C(=O)N1)[C@@H](C)O)C(C)C)C(=O)N[C@@H](Cc1ccc(O)cc1)C(=O)N[C@@H](CCC(N)=O)C(=O)N[C@@H](C)C(=O)N[C@H](C(=O)N[C@@H](CC(=O)O)C(=O)N[C@@H](CCCCN)C(=O)N[C@@H](CC(=O)O)C(=O)N[C@@H](CCCCN)C(=O)N[C@@H](CC(=O)O)C(=O)N[C@@H](CC(N)=O)C(=O)N[C@H](C(=O)N[C@@H](C)C(=O)N1CCC[C@H]1C(=O)N1CCC[C@H]1C(=O)N[C@H](C(=O)N[C@@H](CC(N)=O)C(=O)N[C@H](C(=O)NCC(=O)N[C@@H](CO)C(=O)N[C@@H](CC(N)=O)C(=O)NCC(=O)N1C[C@H](O)C[C@H]1C(N)=O)C(C)C)[C@@H](C)O)C(C)C)[C@@H](C)O [compound 114] (H-KCNTATCTVQRLAHQIYQATDKDKDNVAPPTNVGSNG[Hyp]-NH2; disulfide 2-7; N-terminus assumed)	> 5	2.200	0.022
CC[C@H](C)[C@H](NC(=O)[C@H](CCC(N)=O)NC(=O)[C@H](Cc1c[nH]cn1)NC(=O)[C@H](C)NC(=O)[C@H](CC(C)C)NC(=O)[C@H](CCCNC(=N)N)NC(=O)[C@H](CCC(N)=O)NC(=O)[C@@H](NC(=O)[C@@H](NC(=O)[C@@H]1CSSC[C@H](NC(=O)CN)C(=O)N[C@@H](CCCNC(=N)N)C(=O)N[C@@H](Cc2c[nH]c3ccccc23)C(=O)NCC(=O)N[C@@H]([C@@H](C)O)C(=O)N1)[C@@H](C)O)C(C)C)C(=O)N[C@@H](Cc1ccc(O)cc1)C(=O)N[C@@H](CCC(N)=O)C(=O)N[C@@H](Cc1ccccc1)C(=O)N[C@H](C(=O)N[C@@H](CC(=O)O)C(=O)N[C@@H](CCCCN)C(=O)N[C@@H](CC(=O)O)C(=O)N[C@@H](CCCCN)C(=O)N[C@@H](CC(=O)O)C(=O)N[C@@H](CC(N)=O)C(=O)N[C@H](C(=O)N[C@@H](C)C(=O)N1CCC[C@H]1C(=O)N[C@@H](CCCNC(=N)N)C(=O)N[C@@H](CO)C(=O)N[C@@H](CCCCN)C(=O)N[C@H](C(=O)N[C@@H](CO)C(=O)N1CCC[C@H]1C(=O)N[C@@H](CCC(N)=O)C(=O)N[C@H](C(=O)N1C[C@H](O)C[C@H]1C(N)=O)[C@@H](C)O)[C@@H](C)CC)C(C)C)[C@@H](C)O [compound 150] (H-GCRWGTCTVQRLAHQIYQFTDKDKDNVAPRSKISPQT[Hyp]-NH2; disulfide 2-7; N-terminus assumed)	> 5	18.200	0.04
CC[C@H](C)[C@H](NC(=O)[C@H](CCC(N)=O)NC(=O)[C@H](Cc1c[nH]cn1)NC(=O)[C@H](C)NC(=O)[C@H](CC(C)C)NC(=O)[C@H](CCCNC(=N)N)NC(=O)[C@H](CCC(N)=O)NC(=O)[C@@H](NC(=O)[C@@H](NC(=O)[C@@H]1CSSC[C@H](NC(=O)CN)C(=O)N[C@@H](CCCNC(=N)N)C(=O)N[C@@H](Cc2c[nH]c3ccccc23)C(=O)NCC(=O)N[C@@H]([C@@H](C)O)C(=O)N1)[C@@H](C)O)C(C)C)C(=O)N[C@@H](Cc1ccc(O)cc1)C(=O)N[C@@H](CCC(N)=O)C(=O)N[C@@H](Cc1ccccc1)C(=O)N[C@H](C(=O)N[C@@H](CC(=O)O)C(=O)N[C@@H](CCCCN)C(=O)N[C@@H](Cc1ccccc1)C(=O)N[C@@H](CCCCN)C(=O)N[C@@H](CC(=O)O)C(=O)N[C@@H](CC(N)=O)C(=O)N[C@H](C(=O)N[C@@H](C)C(=O)N1CCC[C@H]1C(=O)N[C@@H](CCCNC(=N)N)C(=O)N[C@@H](CO)C(=O)N[C@@H](CCCCN)C(=O)N[C@H](C(=O)N[C@@H](CO)C(=O)N1CCC[C@H]1C(=O)N[C@@H](CCC(N)=O)C(=O)N[C@H](C(=O)N1C[C@H](O)C[C@H]1C(N)=O)[C@@H](C)O)[C@@H](C)CC)C(C)C)[C@@H](C)O [compound 171] (H-GCRWGTCTVQRLAHQIYQFTDKFKDNVAPRSKISPQT[Hyp]-NH2; disulfide 2-7; N-terminus assumed)	> 5	5.000	0.064

Source: US12139520B2 (priority 2020, dated 2024)
